From PubChem BioAssay (NCI)
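Briefly, cells in 96-well plates were exposed to five compound concentrations for 48 h, and endpoints were estimated by linear interpolation. TGI is the concentration that stops growth completely.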

Experiments:
Assay in all cases: NCI anticancer screen, dose series, 48 h
HT29 colon = system: HT29 colon
KM12 colon = system: KM12 colon
NCI-H522 lung = system: NCI-H522 lung
SNB-78 CNS = system: SNB-78 CNS
SW-620 colon = system: SW-620 colon
UACC-62 melanoma = system: UACC-62 melanoma
OVCAR-4 ovarian = system: OVCAR-4 ovarian
A498 renal = system: A498 renal
MCF7 breast = system: MCF7 breast
DU-145 prostate = system: DU-145 prostate

Structure (SMILES)	TGI (HT29 colon) [µM]	TGI (KM12 colon) [µM]	TGI (NCI-H522 lung) [µM]	TGI (SNB-78 CNS) [µM]	TGI (SW-620 colon) [µM]	TGI (UACC-62 melanoma) [µM]	TGI (OVCAR-4 ovarian) [µM]	TGI (A498 renal) [µM]	TGI (MCF7 breast) [µM]	TGI (DU-145 prostate) [µM]
O=C1C2=C(CCCCC2)C2CCCCC12O (stereo unspecified)	> 100	> 100	> 100	> 100	> 100	> 100				
CC(=O)Nc1ccc(-c2nnc(SCC(=O)Nc3cccc([N+](=O)[O-])c3)o2)cc1	37.2	39.4	22.4	50	44	23.7	25.3			
C[C@H](CN1CC(=O)NC(=O)C1)N1CC(=O)NC(=O)C1	> 100	> 100	> 71.2	> 100	> 84.4	> 100	> 100	> 100	> 100	
O=C1OC(c2ccc(Cl)cc2)(c2ccc(Cl)cc2)c2c1ccc1ccccc21	> 100	> 100	> 100	> 100	> 100	> 100	> 100	> 100		
CCCCCCCC(=O)OCC(C[As](=O)(O)O)OC(=O)CCCCCCC (stereo unspecified)	33.4		26.6	44.1	29.1	27	34	33.2		
Cc1[nH]c(=O)nc2nc3ccc(Cl)cc3c(NC(C)(CO)CO)c12	> 100	> 100	> 67.9		> 100	> 100	> 100	> 100	> 100	> 100
C=CC[N+](CCO)(CCO)CCCCCCCCCCCCCCCCCC	12	3.58	13.5	12.6	22.2	20.2	16.4	42.5	> 44.8	
N/C(=N\N=C\c1cc2c(cc1Cl)OCO2)NO	> 100	> 100	> 100	> 100	> 100	> 84.1	> 100	> 100	> 100	
NNC(=O)CCC(NS(=O)(=O)c1ccc(Cl)cc1)C(=O)NN (stereo unspecified)	> 100	> 100	> 100		> 100	> 100	> 100	> 100	> 100	> 100
CN(C)CCCNc1cnc2cc3ccccc3cc2n1	30.5	47.4	55.5		> 100	30	91.4	> 100	44.8	> 100
CN(C)CCNC(=O)c1cccc2[nH]c(-c3ccncc3)nc12	7.27	> 35.7	3.97		13	10.8	> 100	19.8	> 30.8	> 100
Cc1ccc(S(=O)(=O)C2c3nc4ccccc4cc3-c3nc4ccccc4nc32)cc1 (stereo unspecified)		> 100	> 100	> 100	> 100	> 100	> 100	> 100		
COc1cc([C@@H]2c3cc4c(cc3[C@@H](N=Cc3ccc(C(=O)O[C@@H](C(=O)O[C@H]5C[C@@]6(O)[C@@H](OC(=O)c7ccccc7)[C@@H]7[C@]8(OC(C)=O)CO[C@@H]8C[C@H](O)[C@@]7(C)C(=O)[C@H](OC(C)=O)C(=C5C)C6(C)C)[C@@H](NC(=O)c5ccccc5)c5ccccc5)cc3)[C@H]3COC(=O)[C@H]23)OCO4)cc(OC)c1O	1.92	> 50	> 50		> 50	> 50	> 50	26.2	7.38	> 42.5
CCCCC1(N=[N+]=[N-])C(=O)C2C=CC=C3c4ccccc4N(C1=O)C32 (stereo unspecified)	25.8	> 31.6	25.1		> 31.6	> 31.6	> 31.6	> 10	28.1	> 100
COc1ccc(-c2nnc(CCCCCCCCc3nnc(-c4ccc(OC)cc4)n3N)n2N)cc1	> 100	> 100	> 100		> 100	> 100	> 100	> 100	> 100	> 100
COc1ccc(/C(Cl)=C(\C=O)c2ccccc2)cc1OC	> 100		30.8	> 100	> 100	> 100	> 100			
